The first assay has as its target PDE9 (Homo sapiens, UniProt O76083). As to the kind of experiment: PDE9 inhibition assay.
Conditions: not given
Format: biochemical. The procedure:
Reactions are initiated by addition of the cyclic nucleotide substrate, and reactions are allowed to proceed for one hr at room temperature before being terminated through mixing with 15 uL 8 mg/mL yttrium silicate SPA beads (Amersham). […] IC50 values were calculated by non linear regression using XLfit (IDBS).
Sequence of PDE9 (O76083 whole entry): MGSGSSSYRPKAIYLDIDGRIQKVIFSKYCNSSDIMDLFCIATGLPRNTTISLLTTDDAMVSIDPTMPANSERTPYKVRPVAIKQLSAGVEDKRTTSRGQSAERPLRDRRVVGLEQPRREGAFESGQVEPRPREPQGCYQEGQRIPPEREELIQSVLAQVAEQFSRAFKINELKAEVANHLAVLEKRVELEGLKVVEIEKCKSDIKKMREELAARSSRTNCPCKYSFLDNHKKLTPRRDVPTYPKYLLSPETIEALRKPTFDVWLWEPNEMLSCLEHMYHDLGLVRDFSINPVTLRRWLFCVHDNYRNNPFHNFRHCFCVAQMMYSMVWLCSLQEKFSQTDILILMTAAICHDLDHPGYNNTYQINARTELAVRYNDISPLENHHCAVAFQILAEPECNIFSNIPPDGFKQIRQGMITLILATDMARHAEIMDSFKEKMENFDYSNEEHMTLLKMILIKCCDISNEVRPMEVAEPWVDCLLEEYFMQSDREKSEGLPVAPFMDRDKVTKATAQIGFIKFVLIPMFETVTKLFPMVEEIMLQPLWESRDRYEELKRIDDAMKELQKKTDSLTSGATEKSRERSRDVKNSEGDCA
A word on the IC50: it is the point on the concentration scale where inhibition reaches its midpoint. With `CC(C)OC1CN(C(C)c2cn3c(-c4ccc(F)cc4)ncc3c(=O)[nH]2)C1` (centres unmarked) [Compound 116, 3-(4-fluorophenyl)-6-[1-(3-isopropoxyazetidin-1-yl)ethyl]-7h-imidazo[1,5-a]pyrazin-8-one], 22 nM corresponded to half-maximal inhibition (IC50).

With `CC(C)OC1CN(C(C)c2cn3c(C4CCOCC4)ncc3c(=O)[nH]2)C1` (centres unmarked) [Compound 117, 6-[1-(3-isopropoxyazetidin-1-yl)ethyl]-3-tetrahydropyran-4-yl-7h-imidazo[1,5-a]pyrazin-8-one], half-maximal inhibition (IC50) was put at 93 nM.

Compound `COc1ccc(C2CN(Cc3cn4c(-c5cc(F)cc(F)c5)ncc4c(=O)[nH]3)C2)cc1` [Compound 122, 3-(3,5-difluorophenyl)-6-[[3-(4-methoxyphenyl)azetidin-1-yl]methyl]-7h-imidazo[1,5-a]pyrazin-8-one] came in with an IC50 of 38 nM.

`COc1ccc(C2CN(Cc3cn4c(-c5ccc(F)cc5)ncc4c(=O)[nH]3)C2)cc1` [Compound 123, 3-(4-fluorophenyl)-6-[[3-(4-methoxyphenyl)azetidin-1-yl]methyl]-7h-imidazo[1,5-a]pyrazin-8-one] returned a half-inhibitory concentration (IC50) of 57 nM.

As for `COc1ccc(C2CN(C(C)c3cn4c(-c5ccc(F)cc5)ncc4c(=O)[nH]3)C2)cc1` (centres unmarked) [Compound 126, 3-(4-fluorophenyl)-6-[1-[3-(4-methoxyphenyl)azetidin-1-yl]ethyl]-7h-imidazo[1,5-a]pyrazin-8-one], inhibition was half-maximal at 70 nM (IC50).

Still in this assay, the particulars now being: SPA assay, 10 nM 3H-cAMP, 1 hour incubation; read-out: IC50.
As to `O=c1[nH]c(CN2CC(Oc3ccc(Cl)cc3)C2)cn2c(-c3ccc(F)cc3)ncc12` [Compound 118, 6-[[3-(4-chlorophenoxy)azetidin-1-yl]methyl]-3-(4-fluorophenyl)-7h-imidazo[1,5-a]pyrazin-8-one], the IC50 turned out to be 42 nM.

As for `CC1CN(Cc2ccc(F)cc2)CC1c1cn2c(-c3ccc(OC(F)(F)F)cc3)ncc2c(=O)[nH]1` (centres unmarked) [Compound 119, 6-[1-[(4-fluorophenyl)methyl]-4-methyl-pyrrolidin-3-yl]-3-[4-(trifluoromethoxy)phenyl]-7h-imidazo[1,5-a]pyrazin-8-one], the half-maximal inhibitory concentration (IC50) turned out to be 191 nM.

Turning to `CC(c1cn2c(-c3ccc(F)cc3)ncc2c(=O)[nH]1)N1CC(Oc2ccc(OC(F)(F)F)cc2)C1` (centres unmarked) [Compound 120, 3-(4-fluorophenyl)-6-[1-[3-[4-(trifluoromethoxy)phenoxy]azetidin-1-yl]ethyl]-7h-imidazo[1,5-a]pyrazin-8-one], the IC50 was determined as 35 nM.

As for `O=c1[nH]c(CN2CC(Oc3c(F)cccc3F)C2)cn2c(-c3ccc(F)cc3)ncc12` [Compound 121, 6-[[3-(2,6-difluorophenoxy)azetidin-1-yl]methyl]-3-(4-fluorophenyl)-7h-imidazo[1,5-a]pyrazin-8-one], the IC50 was 41 nM.

On to `CC(c1cn2c(-c3ccc(F)cc3)ncc2c(=O)[nH]1)N1CC(c2ccc(F)cc2)C1` (centres unmarked) [Compound 124, 3-(4-fluorophenyl)-6-[1-[3-(4-fluorophenyl)azetidin-1-yl]ethyl]-7h-imidazo[1,5-a]pyrazin-8-one], for which the IC50 is 72 nM.

In the case of `O=c1[nH]c(CN2CCC(c3cccc(C(F)(F)F)c3)C2)cn2c(C3CCOC3)ncc12` (centres unmarked) [Compound 125, 3-tetrahydrofuran-3-yl-6-[[3-[3-(trifluoromethyl)phenyl]pyrrolidin-1-yl]methyl]-7h-imidazo[1,5-a]pyrazin-8-one], the IC50 was determined as 48 nM.
